Data from ChEMBL document CHEMBL4177643, “Trisubstituted purine inhibitors of PDGFRα and their antileukemic activity in the human eosinophilic cell line EOL-1” (Bioorg Med Chem, 2017).

Tests used:
[1] = tested on: K562; experiment: Cell cycle arrest in human K562 cells assessed as G1/G2-M ratio at GI50 concentration after 24 hrs by propidium iodide staining-based flow cytometry relative to control; type: functional
[2] = tested on: HCC827; experiment: Cell cycle arrest in human HCC827 cells assessed as G1/G2-M ratio at GI50 concentration after 24 hrs by propidium iodide staining-based flow cytometry relative to control; type: functional
[3] = molecular target: Cyclin-dependent kinase 2/cyclin E1 (Homo sapiens, UniProt P24941); experiment: Inhibition of CDK2/cyclin E (unknown origin) expressed in baculovirus infected insect Sf9 cells using histone H1 as substrate in presence of [gamma-33P]ATP
[4] = tested on: EOL1; experiment: Cell cycle arrest in human EOL-1 cells assessed as G1/G2-M ratio at GI50 concentration after 24 hrs by propidium iodide staining-based flow cytometry relative to control; type: functional
[5] = tested on: HCC827; experiment: Cytotoxicity against human HCC827 cells assessed as growth inhibition after 72 hrs by calcein-AM dye based fluorescence assay; type: functional; settings: HCC827, 72 h
[6] = molecular target: Platelet-derived growth factor receptor alpha (Homo sapiens, UniProt P16234); experiment: Inhibition of recombinant human N-terminal GST-His6 tagged PDGFRalpha (Q551 to L1089 residues) expressed in Sf9 insect cells using poly(Ala,Glu,Lys,Tyr)6:2:5:1 hydrobromide as substrate in presence of [gamma-33P]ATP
[7] = tested on: BT-474; experiment: Cytotoxicity against human BT474 cells assessed as growth inhibition after 72 hrs by calcein-AM dye based fluorescence assay; type: functional; settings: BT-474, 72 h
[8] = tested on: EOL1; experiment: Cytotoxicity against human EOL-1 cells assessed as growth inhibition after 72 hrs by calcein-AM dye based fluorescence assay; type: functional; settings: EOL1, 72 h
[9] = tested on: MCF7; experiment: Cytotoxicity against human MCF7 cells assessed as growth inhibition after 72 hrs by calcein-AM dye based fluorescence assay; type: functional; settings: MCF7, 72 h
[10] = tested on: K562; experiment: Cytotoxicity against human K562 cells assessed as growth inhibition after 72 hrs by calcein-AM dye based fluorescence assay; type: functional; settings: K562, 72 h

Sequence of Platelet-derived growth factor receptor alpha (P16234 whole entry, the tested form may be a part): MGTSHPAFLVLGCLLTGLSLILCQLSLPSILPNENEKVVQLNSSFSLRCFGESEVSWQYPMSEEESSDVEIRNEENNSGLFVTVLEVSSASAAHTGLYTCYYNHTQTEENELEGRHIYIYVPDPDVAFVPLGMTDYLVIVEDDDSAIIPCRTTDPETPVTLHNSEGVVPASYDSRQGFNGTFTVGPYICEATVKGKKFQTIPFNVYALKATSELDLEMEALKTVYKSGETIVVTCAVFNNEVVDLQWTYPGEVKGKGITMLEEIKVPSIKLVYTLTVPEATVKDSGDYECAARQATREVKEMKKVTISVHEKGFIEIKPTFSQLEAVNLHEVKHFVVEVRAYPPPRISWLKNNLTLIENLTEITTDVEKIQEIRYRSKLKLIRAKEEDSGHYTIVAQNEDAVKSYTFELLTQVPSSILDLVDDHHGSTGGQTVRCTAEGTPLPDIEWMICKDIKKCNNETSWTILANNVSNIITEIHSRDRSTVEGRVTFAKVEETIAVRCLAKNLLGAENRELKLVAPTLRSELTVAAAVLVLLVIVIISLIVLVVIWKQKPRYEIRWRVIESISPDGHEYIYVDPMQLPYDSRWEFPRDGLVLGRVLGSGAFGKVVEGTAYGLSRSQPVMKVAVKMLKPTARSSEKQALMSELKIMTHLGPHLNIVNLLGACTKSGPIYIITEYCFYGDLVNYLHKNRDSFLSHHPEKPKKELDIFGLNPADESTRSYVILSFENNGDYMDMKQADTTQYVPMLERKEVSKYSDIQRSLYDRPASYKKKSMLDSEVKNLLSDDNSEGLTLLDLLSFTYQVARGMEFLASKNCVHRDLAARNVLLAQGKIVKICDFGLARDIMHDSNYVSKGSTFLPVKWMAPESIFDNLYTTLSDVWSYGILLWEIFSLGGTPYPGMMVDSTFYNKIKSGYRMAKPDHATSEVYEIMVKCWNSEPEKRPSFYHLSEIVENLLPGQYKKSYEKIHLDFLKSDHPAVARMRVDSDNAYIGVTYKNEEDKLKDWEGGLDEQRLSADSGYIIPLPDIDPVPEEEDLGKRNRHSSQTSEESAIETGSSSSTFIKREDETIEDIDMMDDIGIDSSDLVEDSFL

| Structure (SMILES) | Ratio [1] | Ratio [2] | IC50 [3] [µM] | Ratio [4] | GI50 [5] [µM] | IC50 [6] [µM] | GI50 [7] [µM] | GI50 [8] [µM] | GI50 [9] [µM] | GI50 [10] [µM] |
| --- | --- | --- | --- | --- | --- | --- | --- | --- | --- | --- |
| COc1ccc(Cn2cnc3c(Nc4cccc(Cl)c4)nc(N[C@H]4CC[C@H](N)CC4)nc32)cc1 | 1.43 | 1.94 | 5.5 | 0.96 | 18.7 | 7.66 | 8.2 | 0.53 | 4.8 | 2.8 |
| CCCCCCn1cnc2c(Nc3ccc(O)cc3)nc(N[C@H]3CC[C@H](N)CC3)nc21 | 0.69 | 0.44 | 0.485 | 2.5 | 24.7 | 0.452 | 7.7 | 0.19 | 3.5 | 5.4 |
| N[C@H]1CC[C@H](Nc2nc(Nc3ccc(Cl)cc3)c3ncn(C4CCCCC4)c3n2)CC1 | 0.79 | 2.68 | 0.965 | 2.64 | 9.1 | 1.09 | 4.1 | 0.14 | 2.3 | 1.7 |
| CC(C)CCn1cnc2c(Nc3ccc(Cl)cc3)nc(N[C@H]3CC[C@H](N)CC3)nc21 | 0.81 | 3.5 | 0.319 | 7.8 | 10.2 | 0.059 | 5.1 | 0.09 | 2.7 | 1.8 |
| CCCCn1cnc2c(Nc3cc(OC)cc(OC)c3)nc(N[C@H]3CC[C@H](N)CC3)nc21 | 0.82 | 1.35 | 0.442 | 1.3 | 20.1 | 1.5 | 15.6 | 0.37 | 4.5 | 2.4 |
| CS(=O)(=O)CCNCc1ccc(-c2ccc3ncnc(Nc4ccc(OCc5cccc(F)c5)c(Cl)c4)c3c2)o1 [LAPATINIB] |  |  |  |  | 22.3 |  | 0.2 | 0.41 | 8.1 | 5.7 |
| CC(C)CCn1cnc2c(Nc3ccccc3)nc(N[C@H]3CC[C@H](N)CC3)nc21 | 1.2 | 0.39 | 0.627 | 1.67 | 21.7 | 0.096 | 6.4 | 0.01 | 5.4 | 3.5 |
| CCCCn1cnc2c(Nc3cccc(Cl)c3)nc(N[C@H]3CC[C@H](N)CC3)nc21 | 0.78 | 0.54 | 0.132 | 10.75 | 7.2 | 0.154 | 5.1 | 0.16 | 2 | 2 |
| CC(C)CCn1cnc2c(NCc3cccc(Cl)c3)nc(N[C@H]3CC[C@H](N)CC3)nc21 | 1.85 | 2.5 | 0.306 | 1.77 | 16.7 | > 20 | 6.6 | 1.33 | 4.7 | 3.1 |
| COc1ccc(Nc2nc(N[C@H]3CC[C@H](N)CC3)nc3c2ncn3CCC(C)C)c(OC)c1 | 1 | 23.09 | 5.97 | 1.65 | 32.9 | 3.2 | 7.9 | 0.63 | 6.3 | 5.5 |
| CCn1cnc2c(Nc3cccc(Cl)c3)nc(N[C@@H]3CCCC[C@@H]3N)nc21 | 0.48 | 0.29 | 0.017 | 1.28 | 12.2 | > 20 | 5.4 | 0.99 | 3.3 | 4.8 |
| CCCCn1cnc2c(Nc3ccc(Cl)cc3)nc(N[C@H]3CC[C@H](N)CC3)nc21 | 1.52 | 0.28 | 0.117 | 6.43 | 10.8 | 0.06 | 7.3 | 0.05 | 2.1 | 2.7 |
| CCCCn1cnc2c(Nc3ccccc3)nc(N[C@H]3CC[C@H](N)CC3)nc21 | 2.29 | 0.33 | 0.134 | 4.93 | 9 | 0.16 | 4.9 | 0.02 | 2.2 | 3.2 |
| CCCCn1cnc2c(NCc3cccc(Cl)c3)nc(N[C@H]3CC[C@H](N)CC3)nc21 | 1.27 | 0.26 | 0.207 | 0.99 | 10.6 | > 20 | 4.7 | 0.35 | 2.2 | 4.3 |
| CC(C)=CCC/C(C)=C/Cn1cnc2c(Nc3cccc(Cl)c3)nc(N[C@H]3CC[C@H](N)CC3)nc21 | 1.78 | 1.94 | 7.17 | 1.13 | 18.2 | 4.74 | 4.3 | 0.59 | 3.6 | 2.2 |
| COc1cc(Nc2nc(N[C@H]3CC[C@H](N)CC3)nc3c2ncn3CCC(C)C)cc(OC)c1 | 1.6 | 1.47 | 0.98 | 3.71 | 11.2 | 0.29 | 5.9 | 0.14 | 4.5 | 2.5 |
| CC(C)CCn1cnc2c(Nc3cccc(O)c3)nc(N[C@H]3CC[C@H](N)CC3)nc21 | 1.22 | 5.6 | 0.513 | 8.94 | 21.3 | 0.066 | 14.7 | 0.06 | 12.6 | 7.6 |
| N[C@H]1CC[C@H](Nc2nc(Nc3ccc(O)cc3)c3ncn(C4CCCCC4)c3n2)CC1 | 0.95 | 9.61 | 1.44 | 2.44 | 32.5 | 1.23 | 27.3 | 0.22 | 9.6 | 8.9 |
| CC(C)CCn1cnc2c(Nc3ccc(O)cc3)nc(N[C@H]3CC[C@H](N)CC3)nc21 | 0.73 | 2.71 | 0.49 | 1.17 | 14.4 | 0.15 | 7.7 | 0.03 | 3.1 | 4.6 |
